# Laboratory results from PubChem BioAssay AID1259407 (Chemical Carcinogenesis Research Information System (CCRIS), 2018).
# Active and inactive are the calls of the source. How the calls were made is not given here.
# Test system: CCRIS mutagenicity, Ames/micronucleus/aberration tests
# Experiment: CCRIS mutagenicity studies
# [1] = Test System: AMES SALMONELLA TYPHIMURIUM, Strain/Indicator: TA98, Metabolic Activation: NONE, Method: STANDARD PLATE
# [2] = Test System: AMES SALMONELLA TYPHIMURIUM, Strain/Indicator: TA98, Metabolic Activation: RAT LIVER S-9, AROCLOR 1254, Method: STANDARD PLATE
# [3] = Test System: AMES SALMONELLA TYPHIMURIUM, Strain/Indicator: TA100, Metabolic Activation: NONE, Method: STANDARD PLATE
# [4] = Test System: AMES SALMONELLA TYPHIMURIUM, Strain/Indicator: TA100, Metabolic Activation: RAT LIVER S-9, AROCLOR 1254, Method: STANDARD PLATE
# [5] = Test System: AMES SALMONELLA TYPHIMURIUM, Strain/Indicator: TA1537, Metabolic Activation: NONE, Method: STANDARD PLATE
smiles,measurement,setting,value
O=C(O[C@@H]1Cc2c(O)cc(O)cc2O[C@@H]1c1cc(O)c(O)c(O)c1)c1cc(O)c(O)c(O)c1,mutagenic call,"Test System: Ames Salmonella typhimurium, Strain/Indicator: TA102, Metabolic Activation: None, Method: Preincubation",inactive; negative
same,mutagenic call,"Test System: Ames Salmonella typhimurium, Strain/Indicator: TA102, Metabolic Activation: Rat, Liver, S-9, Aroclor 1254 in 0.154 M KCl, Method: Preincubation",inactive; negative
CCCCN(COC(C)=O)N=O,mutagenic call,"Test System: UDS RAT UROTHELIAL CELLS, Strain/Indicator: THY INCORP, Metabolic Activation: NONE",active; positive
Oc1c(Cl)c(Cl)c(Cl)c(Cl)c1Cl,mutagenic call,"End Point: IN VITRO CHROMOSOMAL ABERRATIONS, Test System: CHINESE HAMSTER OVARY CELLS, Metabolic Activation: NONE",inactive; negative
same,mutagenic call,"Test System: AMES SALMONELLA TYPHIMURIUM, Strain/Indicator: TA97A, Metabolic Activation: NONE, Method: STANDARD PLATE",inactive; negative
same,mutagenic call,"Test System: AMES SALMONELLA TYPHIMURIUM, Strain/Indicator: TA97A, Metabolic Activation: RAT LIVER S-9, AROCLOR 1254, Method: STANDARD PLATE",inactive; negative
same,mutagenic call,"Test System: AMES SALMONELLA TYPHIMURIUM, Strain/Indicator: TA98, Metabolic Activation: HAMSTER, LIVER, S-9, AROCLOR 1254, Method: PREINCUBATION",inactive; negative
same,mutagenic call,"Test System: AMES SALMONELLA TYPHIMURIUM, Strain/Indicator: TA98, Metabolic Activation: NONE, Method: PREINCUBATION",inactive; negative
same,mutagenic call,[1],inactive; negative
same,mutagenic call,[2],inactive; negative
same,mutagenic call,"Test System: AMES SALMONELLA TYPHIMURIUM, Strain/Indicator: TA98, Metabolic Activation: RAT, LIVER, S-9, AROCLOR 1254, Method: PREINCUBATION",inactive; negative
same,mutagenic call,"Test System: AMES SALMONELLA TYPHIMURIUM, Strain/Indicator: TA98, Metabolic Activation: RAT, LIVER, S-9, AROCLOR 1254, Method: STANDARD PLATE",active; positive
same,mutagenic call,"Test System: AMES SALMONELLA TYPHIMURIUM, Strain/Indicator: TA100, Metabolic Activation: HAMSTER, LIVER, S-9, AROCLOR 1254, Method: PREINCUBATION",inactive; negative
same,mutagenic call,"Test System: AMES SALMONELLA TYPHIMURIUM, Strain/Indicator: TA100, Metabolic Activation: NONE, Method: PREINCUBATION",inactive; negative
same,mutagenic call,[3],inactive; negative
same,mutagenic call,[4],inactive; negative
same,mutagenic call,"Test System: AMES SALMONELLA TYPHIMURIUM, Strain/Indicator: TA100, Metabolic Activation: RAT, LIVER, S-9, AROCLOR 1254, Method: PREINCUBATION",inactive; negative
same,mutagenic call,"Test System: AMES SALMONELLA TYPHIMURIUM, Strain/Indicator: TA1535, Metabolic Activation: HAMSTER, LIVER, S-9, AROCLOR 1254, Method: PREINCUBATION",inactive; negative
same,mutagenic call,"Test System: AMES SALMONELLA TYPHIMURIUM, Strain/Indicator: TA1535, Metabolic Activation: NONE, Method: PREINCUBATION",inactive; negative
same,mutagenic call,"Test System: AMES SALMONELLA TYPHIMURIUM, Strain/Indicator: TA1535, Metabolic Activation: RAT, LIVER, S-9, AROCLOR 1254, Method: PREINCUBATION",inactive; negative
same,mutagenic call,"Test System: AMES SALMONELLA TYPHIMURIUM, Strain/Indicator: TA1537, Metabolic Activation: HAMSTER, LIVER, S-9, AROCLOR 1254, Method: PREINCUBATION",inactive; negative
same,mutagenic call,"Test System: AMES SALMONELLA TYPHIMURIUM, Strain/Indicator: TA1537, Metabolic Activation: NONE, Method: PREINCUBATION",inactive; negative
same,mutagenic call,"Test System: AMES SALMONELLA TYPHIMURIUM, Strain/Indicator: TA1537, Metabolic Activation: RAT, LIVER, S-9, AROCLOR 1254, Method: PREINCUBATION",inactive; negative
same,mutagenic call,"Test System: CHINESE HAMSTER V-79, Strain/Indicator: V-79/6-THIOGUANINE, Metabolic Activation: NONE, Method: STANDARD PLATE",inactive; negative
same,mutagenic call,"Test System: CHINESE HAMSTER V-79, Strain/Indicator: V-79/6-THIOGUANINE, Metabolic Activation: PRIMARY RAT HEPATOCYTES, Method: STANDARD PLATE",inactive; negative
CCN(CC)CC#CCOC(=O)C(O)(c1ccccc1)C1CCCCC1 (stereo not given),mutagenic call,"Test System: AMES SALMONELLA TYPHIMURIUM, Strain/Indicator: TA98, Metabolic Activation: NONE",inactive; negative
same,mutagenic call,"Test System: AMES SALMONELLA TYPHIMURIUM, Strain/Indicator: TA98, Metabolic Activation: S-9",inactive; negative
same,mutagenic call,"Test System: AMES SALMONELLA TYPHIMURIUM, Strain/Indicator: TA100, Metabolic Activation: NONE",inactive; negative
same,mutagenic call,"Test System: AMES SALMONELLA TYPHIMURIUM, Strain/Indicator: TA100, Metabolic Activation: S-9",inactive; negative
same,mutagenic call,"Test System: AMES SALMONELLA TYPHIMURIUM, Strain/Indicator: TA1535, Metabolic Activation: NONE",inactive; negative
same,mutagenic call,"Test System: AMES SALMONELLA TYPHIMURIUM, Strain/Indicator: TA1535, Metabolic Activation: S-9",inactive; negative
same,mutagenic call,"Test System: AMES SALMONELLA TYPHIMURIUM, Strain/Indicator: TA1537, Metabolic Activation: NONE",inactive; negative
same,mutagenic call,"Test System: AMES SALMONELLA TYPHIMURIUM, Strain/Indicator: TA1537, Metabolic Activation: S-9",inactive; negative
same,mutagenic call,"Test System: AMES SALMONELLA TYPHIMURIUM, Strain/Indicator: TA1538, Metabolic Activation: NONE",inactive; negative
same,mutagenic call,"Test System: AMES SALMONELLA TYPHIMURIUM, Strain/Indicator: TA1538, Metabolic Activation: S-9",inactive; negative
same,mutagenic call,"Test System: E. COLI, Strain/Indicator: WP2 UVRA, Metabolic Activation: NONE",inactive; negative
same,mutagenic call,"Test System: E. COLI, Strain/Indicator: WP2 UVRA, Metabolic Activation: S-9",inactive; negative
O=BOO,mutagenic call,"Test System: AMES SALMONELLA TYPHIMURIUM, Strain/Indicator: TA102, Metabolic Activation: NONE, Method: STANDARD PLATE",active; positive
same,mutagenic call,"Test System: E. COLI, Strain/Indicator: WP2 (PKM101), Metabolic Activation: NONE, Method: STANDARD PLATE",active; positive
same,mutagenic call,"Test System: E. COLI, Strain/Indicator: WP2 UVRA (PKM101), Metabolic Activation: NONE, Method: STANDARD PLATE",active; positive
Cc1cc([N+](=O)[O-])c(C)c2c1[nH]c1ccc(O)cc12,mutagenic call,[1],active; positive
same,mutagenic call,[2],inactive; negative
same,mutagenic call,[3],inactive; negative
same,mutagenic call,[4],inactive; negative
same,mutagenic call,[5],active; positive
same,mutagenic call,"Test System: AMES SALMONELLA TYPHIMURIUM, Strain/Indicator: TA1537, Metabolic Activation: RAT LIVER S-9, AROCLOR 1254, Method: STANDARD PLATE",active; positive
same,mutagenic call,"Test System: AMES SALMONELLA TYPHIMURIUM, Strain/Indicator: TA1977, Metabolic Activation: NONE, Method: STANDARD PLATE",active; positive
same,mutagenic call,"Test System: AMES SALMONELLA TYPHIMURIUM, Strain/Indicator: TA1977, Metabolic Activation: RAT LIVER S-9, AROCLOR 1254, Method: STANDARD PLATE",active; positive
CCCN(CCCO)N=O,mutagenic call,"Test System: CHINESE HAMSTER V-79, Strain/Indicator: V-79/OUABAIN, Metabolic Activation: HAMSTER, HEPATOCYTES, Method: CELL-MEDIATED",inactive; negative
CN(C)CCNC(=O)c1cccc2c(=O)c3ccccc3oc12,mutagenic call,[5],active; positive
